Earlier results on 84 compounds are cited in the CATMoS acute toxicity set (Mansouri et al. 2021).

“And” between values parts separate entries of the source, which are not always exact repeats. Equal entries are not always repeated.

A short description of the data set: rat acute oral toxicity. As to conditions: in vivo.
In the case of `CC1=CC(=O)C(C)=C(C)C1=O`, the LD50 is 200 mg/kg.

As for `NS(=O)(=O)CCl`, the LD50 is 6050 mg/kg. Take `O=[N+]([O-])OC1COC2C(O)COC12` (centres undefined): the LD50 is 2300 mg/kg. `N#CCCOCCOCCO`: the LD50 was 13400 mg/kg. Turning to `CCOP(=S)(OCC)SCc1cccc([N+](=O)[O-])c1`, the LD50 was 250 mg/kg.

For `CCC(C)C(C)(COC(N)=O)COC(N)=O` (centres undefined), the LD50 is 1160 mg/kg.

As for `O=C(O)c1ccc([N+](=O)[O-])cc1`, the LD50 was 1960 mg/kg.

As to `CCCN(CCC)C(=O)C(CCC(=O)NCCCOC(=O)Cc1c(C)n(C(=O)c2ccc(Cl)cc2)c2ccc(OC)cc12)NC(=O)c1ccccc1` (centres undefined), the LD50 is 370 mg/kg. As for `CCS`, the LD50 was 682 mg/kg. On to `Nc1ccc2[nH]c3ccc(N)cc3c2c1`, for which the LD50 was 1040 mg/kg. As for `CCCSC(=O)Cl`, the LD50 was 1130 mg/kg. Turning to `O=S(=O)(O)c1cc(Cl)ccc1C=Cc1ccc(-n2nc3cc(S(=O)(=O)O)c4ccccc4c3n2)cc1S(=O)(=O)O`, the LD50 is 13700 mg/kg. As for `CCCCNC(N)=O`, the LD50 was 1260 mg/kg. Consider `Cn1c([N+](=O)[O-])cnc1COC(N)=O`, for which the median lethal dose (LD50) is 3400 mg/kg. For the compound `CC(N)CCN` (centres undefined), the LD50 is 1350 mg/kg. Regarding `O=S(=O)(O)c1cccc(Nc2nc(Nc3ccc(C=Cc4ccc(Nc5nc(Nc6cccc(S(=O)(=O)O)c6)nc(N(CCO)CCO)n5)cc4S(=O)(=O)O)c(S(=O)(=O)O)c3)nc(N(CCO)CCO)n2)c1`, the LD50 is 1960 mg/kg. Regarding `CCCCSP(=O)(N(C)C)N(C)C`, the LD50 is 208 mg/kg. With `COP(=O)(OC)Sc1ccc(Cl)cc1`, the LD50 is 100 mg/kg. Turning to `CC(C)(O)CCc1ccccc1`, the LD50 was 2200 mg/kg. In the case of `O=[N+]([O-])c1cc(Cl)c(Cl)c(Cl)c1[N+](=O)[O-]`, the LD50 is 425 mg/kg. Regarding `Cc1cc(C2CCCCC2)n(O)c(=O)c1`, the LD50 is 2350 mg/kg.

On to `CC(C)[N+](C)(CCC(C(N)=O)(c1ccccc1)c1ccccc1)C(C)C`, for which the LD50 was 1030 mg/kg. For the compound `O=c1[nH]c2ccccc2c(=O)n1CCCN1CCN(c2cccc(Cl)c2)CC1`, the LD50 is 7650 mg/kg. In the case of `CCOC(C1=NCC(C)(C)CN1)c1ccc(C(C)C)cc1` (centres undefined), the median lethal dose (LD50) is 220 mg/kg. Regarding `C=CCC(CC=C)C(=O)O`, the LD50 was 570 mg/kg. On to `CCCCCCCCCCF`, for which the LD50 was 5 mg/kg. For the compound `Cn1c(=O)c2c(ncn2CCCCN2CCN(c3ccc(Cl)cc3)CC2)n(C)c1=O`, the LD50 was 505 mg/kg.

`CCOP(=S)(OCC)SC1CCSC1` (centres undefined): the LD50 was 20 mg/kg. For the compound `ClCCOCCC(OCCCl)OCCCl`, the LD50 is 710 mg/kg. With `CCOC(=O)C=CC(=O)OCC`, the LD50 is 3200 mg/kg. For the compound `C[C@H](NCCc1ccc(O)cc1)[C@H](O)c1ccc(O)cc1`, the median lethal dose (LD50) was 1840 mg/kg. With `CCSC(=O)N(CC)CC`, the LD50 was 400 mg/kg. For `O=C(O)CNCC(=O)O`, the LD50 was 8070 mg/kg.

Regarding `CCOC(=O)c1ccccc1O`, the LD50 is 1320 mg/kg. `CCOC(=O)C(Cl)=NNc1ccccc1`: the LD50 is 13000 mg/kg. Regarding `CN(C)CCCSc1ccccc1NC(=O)C=Cc1ccccc1`, the LD50 was 1500 mg/kg.

As for `CC(C)=CC1C(C(=O)OCc2ccc(C)cc2C)C1(C)C` (centres undefined), the LD50 is 40000 mg/kg.

As for `CN[C@@H]1[C@H](O[C@H]2[C@H](O[C@H]3[C@H](O)[C@@H](O)[C@H](NC(=N)N)[C@@H](O)[C@@H]3NC(=N)N)O[C@@H](C)[C@]2(O)C=O)O[C@@H](CO)[C@H](O)[C@H]1O`, the LD50 was 9000 mg/kg. Consider `CC(C)C(C(=O)OC(C#N)c1ccc(Oc2ccccc2)cc1)c1ccc(Cl)cc1` (centres undefined), for which the LD50 was 451 mg/kg. Turning to `C=C(C)C(C)=O`, the LD50 is 180 mg/kg. Turning to `C=Cc1ccncc1`, the LD50 is 100 mg/kg. As to `CC(C)(C)c1cc(CCC(=O)OCCSCCOC(=O)CCc2cc(C(C)(C)C)c(O)c(C(C)(C)C)c2)cc(C(C)(C)C)c1O`, the LD50 was 6300 mg/kg. `CCN(CCN(C)C)c1ccccc1`: the LD50 was 1150 mg/kg. With `FC(F)(F)c1nc2c(Cl)cc(I)cc2[nH]1`, the LD50 was 1.44 mg/kg. For the compound `CC(=O)CCCOC(C)=O`, the LD50 is 6080 mg/kg. On to `CN1CC[C@]23CCCC[C@H]2[C@H]1Cc1ccc(O)cc13`, for which the LD50 is 150 mg/kg. `Nc1ccc(S(=O)(=O)c2ccc(N)cc2)cc1`: the LD50 is 1000 mg/kg. Consider `O=C(O)Cc1cc(I)c(Oc2cc(I)c(O)c(I)c2)c(I)c1`, for which the LD50 is 0.825 mg/kg. `CCCCNCCC[Si](OC)(OC)OC`: the LD50 was 12800 mg/kg. Take `C=CCOP(OCC=C)OCC=C`: the LD50 is 178 mg/kg.

Regarding `CN(C)CCOCCOC(=O)N1c2ccccc2Sc2ccccc21`, the LD50 is 1500 mg/kg. As for `Cc1ccc(Cc2ccc(C)cc2)cc1`, the LD50 is 3800 mg/kg and 1700 mg/kg. Regarding `O=C(c1ccccc1)c1cccc(NS(=O)(=O)C(F)F)c1`, the LD50 is 750 mg/kg and 450 mg/kg. On to `C=CCl`, for which the LD50 was 500 mg/kg. `C[C@H](CCC(=O)O)[C@H]1CC[C@H]2[C@@H]3[C@@H](O)C[C@@H]4C[C@H](O)CC[C@]4(C)[C@H]3CC[C@]12C`: the LD50 was 4600 mg/kg.

As for `O=[N+]([O-])c1cncn1CCN1CCOCC1`, the LD50 was 1540 mg/kg. Take `CC(=C(CCO)SSCC1CCCO1)N(C=O)Cc1cnc(C)nc1N` (centres undefined): the LD50 was 2200 mg/kg.

On to `COP(=S)(OC)SCOC(C)=O`, for which the LD50 is 93 mg/kg. As to `Cn1c(=O)on(-c2ccc(Cl)c(Cl)c2)c1=O`, the LD50 is 777 mg/kg. As for `CCCCCCC(C)P(=O)(C(C)CCCCCC)C(C)CCCCCC` (centres undefined), the LD50 is 7270 mg/kg. As to `CC(N)C12CC3CC(CC(C3)C1)C2` (centres undefined), the LD50 is 640 mg/kg.

For the compound `CC(C)OP(O)(=S)OC(C)C`, the LD50 was 20200 mg/kg.

Take `CC(SCC(=O)O)c1ccc2c(c1)Cc1ccccc1-2` (centres undefined): the LD50 is 1900 mg/kg. With `CCOP(=S)(OCC)SC1COCCS1` (centres undefined), the LD50 was 3 mg/kg.

Take `C[C@@H]1CC[C@H]2[C@@H](C)C(=O)O[C@@H]3O[C@@]4(C)CC[C@@H]1[C@]32OO4`: the LD50 was 5580 mg/kg. On to `CC(C)=NNC(=O)CSc1cc(Oc2ccc(F)cc2)ncn1`, for which the LD50 is 380 mg/kg. Consider `C=C[C@@]1(C)CC(=O)[C@]2(O)[C@@]3(C)[C@@H](O)CCC(C)(C)[C@@H]3[C@H](O)[C@H](OC(C)=O)[C@@]2(C)O1`, for which the LD50 was 2550 mg/kg. For the compound `Nc1ccc2[nH]c3ccccc3c2c1`, the LD50 is 1520 mg/kg. `CCC1C(c2ccccc2)=CCC(C(=O)O)C1C` (centres undefined): the LD50 is 2350 mg/kg. Regarding `O=c1c2cccnc2oc2c(Cl)cc(-c3nn[nH]n3)cc12`, the LD50 is 16000 mg/kg. For `O=C(CCc1ccccc1)OC1=C(OC(=O)CCc2ccccc2)C(=O)OC1=O`, the LD50 was 10000 mg/kg. As for `Clc1cc(Cl)c(Cl)cc1Cl`, the LD50 was 1500 mg/kg.

For `Clc1ccc2ccccc2c1`, the LD50 is 2080 mg/kg. Regarding `CSP(SC)SC`, the LD50 was 105 mg/kg.

With `O=C(O)Cn1c(=O)sc2cccc(Cl)c21`, the LD50 is 3000 mg/kg. Turning to `FC(F)(F)C(Cl)Br` (centres undefined), the LD50 was 5680 mg/kg. For `Cc1ncc(CNC(=O)N(CCCl)N=O)c(N)n1`, the LD50 was 113 mg/kg.

For the compound `CCCOCN(C(=O)CCl)c1c(C)cccc1OCC`, the LD50 is 2100 mg/kg. Take `CC(=NO)C(C)(O)C#Cc1ccccc1` (centres undefined): the LD50 is 3120 mg/kg. On to `COC(=O)C1=C(C)NC(C)=C(C(=O)O[C@H]2CCN(Cc3ccccc3)C2)[C@H]1c1cccc([N+](=O)[O-])c1`, for which the LD50 was 105 mg/kg. Regarding `COCCOCc1ccccc1`, the LD50 is 2290 mg/kg. As for `COC(=O)c1ccccc1C(=O)c1ccc(OCCN2CCCCC2)cc1`, the LD50 was 3600 mg/kg.

In the case of `O=Cc1ccc(O)cc1`, the LD50 is 2250 mg/kg. For the compound `COP(=O)(OC)Oc1ccc([N+](=O)[O-])c(C)c1`, the LD50 is 24 mg/kg.

Broadly, the LD50 is the dose expected to kill half of the subjects tested.
